Non-standard residues stand in square brackets, D forms with d. Residues, ends and D or L forms follow the SMILES beside them. *: point of attachment. NMeI = CC[C@H](C)[C@H](NC)C(=O)O; NMeD = CN[C@@H](CC(=O)O)C(=O)O; NMeV = CN[C@H](C(=O)O)C(C)C; Pip = O=C(O)[C@@H]1CCCCN1; dLac = C[C@@H](O)C(=O)O; OtBu = CC(C)(C)O*
How the values were obtained:
Assay type in all cases: functional, cell-based
[1] = target: T1, ATP-dependent translocase ABCB1 (P-glycoprotein) (Homo sapiens, UniProt P08183); assay: TP_TRANSPORTER: increase in Calcein-AM intracellular accumulation (Calcein-AM: 0.25 uM) in MDR-P388 cells; conditions: mouse, probe Calcein-AM
[2] = target: T1, ATP-dependent translocase ABCB1 (P-glycoprotein); assay: (§1) TP_TRANSPORTER: increase in Calcein-AM intracellular accumulation (Calcein-AM: 0.25 uM) in MDR-CEM cells; conditions: human, MDR-CEM cells, probe Calcein-AM
[3] = target: ATP-dependent translocase ABCB1 (Homo sapiens, UniProt P08183); assay: as §1
Sequence of ATP-dependent translocase ABCB1 (P08183 whole entry): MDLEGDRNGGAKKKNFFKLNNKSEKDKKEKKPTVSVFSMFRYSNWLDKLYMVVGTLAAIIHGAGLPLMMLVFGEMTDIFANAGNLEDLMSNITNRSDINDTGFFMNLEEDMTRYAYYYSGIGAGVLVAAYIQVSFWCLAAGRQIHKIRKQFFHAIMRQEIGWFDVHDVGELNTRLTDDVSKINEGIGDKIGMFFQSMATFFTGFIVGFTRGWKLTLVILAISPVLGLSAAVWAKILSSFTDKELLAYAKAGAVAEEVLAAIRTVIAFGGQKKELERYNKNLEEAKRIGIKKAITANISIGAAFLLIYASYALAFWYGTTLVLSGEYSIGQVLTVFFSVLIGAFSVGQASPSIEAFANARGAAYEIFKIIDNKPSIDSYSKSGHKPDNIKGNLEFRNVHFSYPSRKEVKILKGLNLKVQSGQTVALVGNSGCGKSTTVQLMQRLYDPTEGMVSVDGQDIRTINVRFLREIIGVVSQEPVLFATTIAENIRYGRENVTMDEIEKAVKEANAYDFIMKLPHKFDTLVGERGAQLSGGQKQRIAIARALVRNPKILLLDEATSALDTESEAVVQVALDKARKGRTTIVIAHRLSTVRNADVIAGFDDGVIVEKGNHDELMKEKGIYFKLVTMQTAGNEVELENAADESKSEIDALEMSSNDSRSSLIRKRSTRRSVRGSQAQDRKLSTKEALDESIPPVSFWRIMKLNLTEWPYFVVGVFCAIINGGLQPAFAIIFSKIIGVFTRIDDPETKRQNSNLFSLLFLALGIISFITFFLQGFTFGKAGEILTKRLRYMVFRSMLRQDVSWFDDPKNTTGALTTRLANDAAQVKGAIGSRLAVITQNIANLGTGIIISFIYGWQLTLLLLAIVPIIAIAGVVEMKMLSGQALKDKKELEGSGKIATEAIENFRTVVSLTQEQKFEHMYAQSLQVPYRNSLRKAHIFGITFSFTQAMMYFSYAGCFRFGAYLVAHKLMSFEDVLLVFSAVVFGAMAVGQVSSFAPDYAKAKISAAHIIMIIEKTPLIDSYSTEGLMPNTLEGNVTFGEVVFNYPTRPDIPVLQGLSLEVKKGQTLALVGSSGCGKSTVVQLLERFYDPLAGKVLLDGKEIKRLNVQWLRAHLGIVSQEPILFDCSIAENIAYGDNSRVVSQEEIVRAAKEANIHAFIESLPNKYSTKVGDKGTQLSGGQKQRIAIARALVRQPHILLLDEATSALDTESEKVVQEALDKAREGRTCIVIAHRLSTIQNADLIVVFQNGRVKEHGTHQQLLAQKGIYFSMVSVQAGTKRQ

T1 sequence (P08183 whole entry): as above

Compound | EC50 [1] | EC50 [2] | EC50 [3]
CC[C@H](C)[C@H]1C(=O)NCC(=O)N(C)[C@@H](C(C)C)C(=O)N[C@@H](Cc2ccc(OC)cc2)C(=O)O[C@H](C)C(=O)N2CCCC[C@H]2C(=O)N(C)[C@@H](C(C)C)C(=O)N[C@@H](C(C)C)C(=O)N(C)[C@@H](CC(=O)OC(C)(C)C)C(=O)N(C)[C@@H]([C@@H](C)CC)C(=O)N1C (cyclo(G[NMeV]Y(Me)[dLac][Pip][NMeV]V[NMeD](OtBu)[NMeI][NMeI])) | 60 nM | 220 nM | –
CCN(CC)CCCC(C)Nc1c2ccc(Cl)cc2nc2ccc(OC)cc12 (stereo not drawn) [QUINACRINE] | – | – | 14400 nM
